The values below come from PMC6912361, “Systemic Toxicity Reported for CDK8/19 Inhibitors CCT251921 and MSC2530818 Is Not Due to Target Inhibition” (Cells, 2019).

Where two headings read alike, the source gives them in different places.

The test system of data set [1] is STAT1 S727 phosphorylation. The data set can be described thus: Western blot of STAT1 S727 phosphorylation in 293-dKO cells. Format: cell-based, human. As to conditions: for CDK8/19-independent STAT1 S727 phosphorylation in dKO 293 cells, effect of cytotoxic drugs: 3 h, 50 μM etoposide, 50 nM Taxol; for Basal STAT1 S727 phosphorylation in dKO cells, effect of cytokines: 20 ng/mL EGF, 40 ng/mL TNFα, 1 h after 24 h serum starvation. The protocol:
Cells were cultured in 60-mm dishes and treated under different conditions before being lysed in RIPA lysis buffer with protease/phosphatase inhibitor cocktail. The protein concentration of extracts was determined using the DC protein assay (Bio-Rad Laboratories). Protein samples (50 μg) were resolved on 4–12% Express-Plus PAGE gels in Tris-MOPS (SDS) running buffer (GenScript, Piscataway, NJ, USA), transferred to PVDF membranes and incubated at 4 °C overnight with primary antibodies STAT1 (sc-592, Santa Cruz Biotechnology, Dallas, TX, USA) and pSTAT1-Ser727 (#8826, Cell Signaling Technology, Danvers, MA, USA) followed by anti-rabbit (NA934, GE Healthcare, Chicago, IL, USA) secondary antibodies. Bands were visualized with Western Lighting Plus ECL detection reagent (Perkin Elmer, Waltham, MA, USA) using ChemiDoc Touch™ (Bio-Rad). Images were analyzed using ImageLab (Bio-Rad) and ImageJ (version 1.52p) software for protein signal quantification.
A general note: In western blotting, separated proteins are transferred to a membrane and probed.

A further data set has as its target CDK8 (Homo sapiens, UniProt P49336). Description: Cell-based QPCR assay of CDK8/19-dependent gene expression, HEK293 CDK19 single-knockout (19KO) cells. Also noted: CDK19 single-knockout (19KO); endogenous in cells; host or cells: HEK293 CDK19 knockout (19KO). The note with it: HEK293 19KO, 1 h pre-treatment, then 10 ng/mL TNFα 2 h.
Data set [2] relates to CDK8/19. The data set can be described thus: Cell-based QPCR assay of CDK8/19-dependent gene expression, HEK293 parental (WT) cells. The arrangement: species or system human.
Description: All cells were cultured in DMEM (high-glucose) media supplemented with 10% fetal bovine serum (FBS) and Penicillin-Streptomycin-Glutamine (1×) at 37 °C with 5% CO2 and routinely confirmed to be free of mycoplasma.
(§3) Total RNA was extracted using RNAeasy Mini Kit (Qiagen, Germantown, MD, USA) and 1 µg of total RNA was used to generate cDNA using iScript cDNA synthesis kit (Bio-Rad Laboratories, Hercules, CA, USA). Gene expression was quantified using iTaq Universal SYBR green super mix using CFX384 Real-Time System (Bio-Rad).
The IC50 values for different inhibitors in inhibiting CDK8/19-dependent gene expression were calculated using a three-parameter least square (ordinary) fitting method with GraphPad Prism 7.0 (GraphPad Software, San Diego, CA, USA).
(§4) Cells were pre-treated with different concentrations of CDK8/19 inhibitors for 1 h and then 10 ng/mL TNFα, an inducer of transcription factor NFκB, which is potentiated by CDK8/19 [5], was added for 2 h before RNA extraction. QPCR was carried out to quantify CDK8/19-regulated expression of NFκB-inducible genes CXCL1 and CXCL8 and the basal expression of MYC.
Data set [3] concerns the target T1, CDK19 (Homo sapiens, UniProt Q9BWU1). The data set can be described thus: Cell-based QPCR assay of CDK8/19-dependent gene expression, HEK293 CDK8 single-knockout (8KO) cells. The arrangement: CDK8 single-knockout (8KO); endogenous in cells; host or cells: HEK293 CDK8 knockout (8KO). The note with it: HEK293 8KO, 1 h pre-treatment, then 10 ng/mL TNFα 2 h.
Target sequence in this assay (Q9BWU1 whole entry): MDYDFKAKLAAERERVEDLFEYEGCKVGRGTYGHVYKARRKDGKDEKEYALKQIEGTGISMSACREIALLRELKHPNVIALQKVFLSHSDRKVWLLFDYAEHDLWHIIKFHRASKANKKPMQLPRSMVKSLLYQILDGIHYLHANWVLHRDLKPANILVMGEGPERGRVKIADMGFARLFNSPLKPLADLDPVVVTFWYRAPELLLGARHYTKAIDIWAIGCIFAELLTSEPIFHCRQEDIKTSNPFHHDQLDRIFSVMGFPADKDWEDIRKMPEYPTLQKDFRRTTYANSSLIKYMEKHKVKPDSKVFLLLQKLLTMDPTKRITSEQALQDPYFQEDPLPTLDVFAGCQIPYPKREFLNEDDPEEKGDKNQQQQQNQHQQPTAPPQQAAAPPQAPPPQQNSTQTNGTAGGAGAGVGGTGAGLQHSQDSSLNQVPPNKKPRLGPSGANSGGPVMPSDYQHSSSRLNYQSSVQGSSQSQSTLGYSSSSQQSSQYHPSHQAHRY
Target sequence in this assay (P24863 whole entry partner): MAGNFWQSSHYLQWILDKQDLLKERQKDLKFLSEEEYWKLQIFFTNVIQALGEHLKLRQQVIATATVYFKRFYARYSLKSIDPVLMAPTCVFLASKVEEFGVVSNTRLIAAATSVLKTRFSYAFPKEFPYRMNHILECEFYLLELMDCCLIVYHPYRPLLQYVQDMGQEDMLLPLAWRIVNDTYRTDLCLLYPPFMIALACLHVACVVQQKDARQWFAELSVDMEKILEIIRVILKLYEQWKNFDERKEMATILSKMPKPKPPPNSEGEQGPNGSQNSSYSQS
Description: CDK8/CDK19 single knockout and double knockout derivatives of human embryonic kidney (HEK) 293 cells (ATCC CRL-1573) were generated as previously described [18]. All cells were cultured in DMEM (high-glucose) media supplemented with 10% fetal bovine serum (FBS) and Penicillin-Streptomycin-Glutamine (1×) at 37 °C with 5% CO2 and routinely confirmed to be free of mycoplasma.
as §3
The IC50 values for different inhibitors in inhibiting CDK8/19-dependent gene expression were calculated using a three-parameter least square (ordinary) fitting method with GraphPad Prism 7.0 (GraphPad Software, San Diego, CA, USA). The Kruskal–Wallis non-parametric ANOVA was used to compare gene expression levels under no-inhibitor conditions between wild-type cells and knockout derivatives (8KO, 19KO and dKO) with GraphPad Prism 7.0.
as §4
Data set [4] relates to CDK8/19. Description: Wash-off study: stability of inhibition of CDK8/19-dependent gene expression in 293 cells. It is filed as cell-based, human. The note with it: 30 nM, 3 h, then drug-free media. From the text: We then asked if such toxicity could be associated with the stability of CDK8/19 inhibition. […] Then the drug-containing media were removed, cells were washed twice with PBS and cultured in fresh drug-free media for different periods of time before being lysed for RNA extraction and QPCR analysis of mRNA expression of MYC, JUN and ADAMTS1.

Data set [5] relates to non-dechorionated embryos of zebrafish TU strain. The data set can be described thus: Zebrafish toxicity assay, non-dechorionated embryos (TU strain). It is filed as in vivo. As to conditions: 2 μM; TU strain. The protocol: The toxicity studies in non-dechorionated embryos of zebrafish TU strain were approved by the Institutional Animal Care and Use Committee of the University of South Carolina. The studies were conducted in sterile 24-well plates with one 24 hpf embryo in each well in a 1 mL volume of egg water. For each plate, 6 wells were treated with vehicle control and the other 18 wells (i.e., biological replicates) were treated with different CDK8/19 inhibitors at different concentrations. […] All the data from the plates with at least five healthy vehicle-treated embryos on day 5 were compiled together for final data analysis.

A further data set relates to rats. The note with it: cited from earlier work.
The test system of a further data set is dogs. As to conditions: cited from earlier work.
For data set [6], the target named is T2, PIKFYVE (Homo sapiens, UniProt Q9Y2I7). The data set can be described thus: Phase-contrast microscopy for intracellular large vesicular structures (PIKFYVE inhibition). Format: cell-based. The note with it: 3 h; both WT and dKO 293 cells. The arrangement: endogenous in cells; host or cells: HEK293-WT and HEK293-dKO. How it is done: To evaluate PIKFYVE kinase inhibition, HEK293-WT and HEK293-dKO cells were treated with CDK8/19 inhibitors at different drug concentrations for 3 h. Phase-contrast microscopy was then used to detect the formation of intracellular large vesicular structures, associated with PIKFYVE inhibition.
T2 sequence (Q9Y2I7 whole entry): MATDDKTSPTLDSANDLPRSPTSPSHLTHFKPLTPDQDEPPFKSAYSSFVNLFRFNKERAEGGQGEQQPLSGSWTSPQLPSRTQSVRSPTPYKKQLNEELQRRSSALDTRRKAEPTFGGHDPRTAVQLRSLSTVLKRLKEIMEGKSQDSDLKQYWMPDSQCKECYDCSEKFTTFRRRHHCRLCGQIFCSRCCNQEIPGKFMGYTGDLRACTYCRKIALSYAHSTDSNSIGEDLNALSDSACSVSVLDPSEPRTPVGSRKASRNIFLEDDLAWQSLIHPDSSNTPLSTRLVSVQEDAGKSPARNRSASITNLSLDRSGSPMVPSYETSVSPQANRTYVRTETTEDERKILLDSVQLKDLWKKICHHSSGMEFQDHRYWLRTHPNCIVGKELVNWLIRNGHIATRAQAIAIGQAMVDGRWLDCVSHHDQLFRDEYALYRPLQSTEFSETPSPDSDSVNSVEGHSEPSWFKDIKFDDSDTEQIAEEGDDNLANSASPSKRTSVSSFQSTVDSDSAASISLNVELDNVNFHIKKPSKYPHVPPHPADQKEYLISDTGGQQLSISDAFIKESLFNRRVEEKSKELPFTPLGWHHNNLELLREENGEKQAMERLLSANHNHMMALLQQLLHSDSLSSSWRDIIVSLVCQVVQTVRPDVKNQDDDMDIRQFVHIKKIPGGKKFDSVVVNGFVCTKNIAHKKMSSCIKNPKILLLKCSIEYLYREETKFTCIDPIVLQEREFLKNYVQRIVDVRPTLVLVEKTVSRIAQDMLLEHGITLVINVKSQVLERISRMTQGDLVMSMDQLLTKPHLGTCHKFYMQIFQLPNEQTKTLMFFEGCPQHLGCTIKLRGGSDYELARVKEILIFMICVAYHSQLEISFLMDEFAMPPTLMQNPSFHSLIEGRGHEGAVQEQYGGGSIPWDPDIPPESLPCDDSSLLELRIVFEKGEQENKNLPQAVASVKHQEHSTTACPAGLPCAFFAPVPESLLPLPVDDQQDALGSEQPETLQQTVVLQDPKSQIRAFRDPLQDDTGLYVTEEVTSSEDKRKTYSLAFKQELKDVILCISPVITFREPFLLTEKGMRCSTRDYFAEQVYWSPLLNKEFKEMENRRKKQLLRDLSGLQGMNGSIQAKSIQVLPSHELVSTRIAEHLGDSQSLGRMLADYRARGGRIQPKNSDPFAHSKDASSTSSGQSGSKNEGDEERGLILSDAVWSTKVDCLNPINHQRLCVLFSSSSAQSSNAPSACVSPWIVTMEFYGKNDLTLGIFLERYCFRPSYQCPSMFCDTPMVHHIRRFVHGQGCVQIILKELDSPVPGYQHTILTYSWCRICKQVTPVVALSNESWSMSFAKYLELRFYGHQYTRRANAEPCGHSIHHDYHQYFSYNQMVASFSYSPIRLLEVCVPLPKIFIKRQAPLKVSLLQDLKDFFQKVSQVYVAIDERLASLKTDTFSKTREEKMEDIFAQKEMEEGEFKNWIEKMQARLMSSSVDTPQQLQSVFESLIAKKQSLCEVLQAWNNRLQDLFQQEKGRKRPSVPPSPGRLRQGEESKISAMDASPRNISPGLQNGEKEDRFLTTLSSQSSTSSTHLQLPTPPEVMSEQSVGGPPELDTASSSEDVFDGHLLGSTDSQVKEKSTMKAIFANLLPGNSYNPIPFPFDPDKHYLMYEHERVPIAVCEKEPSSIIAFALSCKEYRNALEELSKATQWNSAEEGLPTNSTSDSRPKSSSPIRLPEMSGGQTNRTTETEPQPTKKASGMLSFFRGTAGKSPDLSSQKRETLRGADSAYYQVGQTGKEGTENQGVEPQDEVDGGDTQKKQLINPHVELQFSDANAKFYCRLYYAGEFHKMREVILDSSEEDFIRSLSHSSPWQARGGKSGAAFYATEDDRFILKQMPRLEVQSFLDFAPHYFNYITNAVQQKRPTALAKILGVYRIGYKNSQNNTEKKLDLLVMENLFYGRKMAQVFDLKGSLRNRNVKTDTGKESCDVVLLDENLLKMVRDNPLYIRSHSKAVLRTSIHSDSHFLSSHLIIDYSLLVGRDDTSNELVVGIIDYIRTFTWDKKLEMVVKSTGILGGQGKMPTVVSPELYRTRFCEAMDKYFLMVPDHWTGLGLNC

Data set [7] has as its target T1, CDK19. Description: KdELECT Kd determination, CDK19. Format: binding. Also noted: purchased DiscoverX. The protocol: To determine dissociation constants (Kds) of compounds on different targets, an 11-point 3-fold serial dilution of each test compound was tested in independent duplicate assays.
Target sequence in this assay (Q9BWU1 whole entry): as the sequence (Q9BWU1 whole entry) above
The next data set deals with T3, JNK1 (MAPK8) (Homo sapiens, UniProt P45983).
T3 construct: purchased DiscoverX
T3 sequence (P45983 whole entry): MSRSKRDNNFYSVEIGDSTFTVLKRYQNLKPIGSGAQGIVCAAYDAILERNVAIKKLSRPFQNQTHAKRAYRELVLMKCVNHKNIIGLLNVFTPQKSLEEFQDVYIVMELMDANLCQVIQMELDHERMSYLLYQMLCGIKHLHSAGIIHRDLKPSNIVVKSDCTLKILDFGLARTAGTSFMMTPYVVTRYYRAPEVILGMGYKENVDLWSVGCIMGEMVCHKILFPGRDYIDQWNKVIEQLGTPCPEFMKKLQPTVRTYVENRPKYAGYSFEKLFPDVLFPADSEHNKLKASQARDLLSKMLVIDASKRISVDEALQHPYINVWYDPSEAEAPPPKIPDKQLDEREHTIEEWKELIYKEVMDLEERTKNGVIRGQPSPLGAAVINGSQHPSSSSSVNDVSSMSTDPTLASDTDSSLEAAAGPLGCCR
The data set can be described thus: KdELECT Kd determination, JNK1. As to conditions: 11-point 3-fold serial dilution, duplicate; read-out: Kd for the inhibition of nucleotide binding, JNK1 (MAPK8). The protocol: (§1) The screening platform employs an active site-directed competition binding assay to quantitatively measure interactions between test compounds and targeting kinases. […] To determine dissociation constants (Kds) of compounds on different targets, an 11-point 3-fold serial dilution of each test compound was tested in independent duplicate assays.
(§2) This assay has been previously used with many CDK8/19 inhibitors, including cortistatin A and its equipotent analog dCA [20, 21]; 15w.

On the set-up of data set [8]: method as in PMID 26796641. The note with it: mice, 30 mg/kg/d; cited from earlier work.
Details of data set [9]: method as in PMID 27935476. As to conditions: colon cancer and leukemia mouse xenograft models; cited from earlier work.
For data set [10], the target named is T2, PIKFYVE. The data set can be described thus: KdELECT Kd determination, PIKFYVE. The arrangement: purchased DiscoverX. As to conditions: 11-point 3-fold serial dilution, duplicate; read-out: Kd for the inhibition of nucleotide binding, PIKFYVE. The protocol:
as §1, §2

Another data set addresses T4, STK16 (Homo sapiens, UniProt O75716).
T4 construct: purchased DiscoverX
The data set can be described thus: KdELECT Kd determination, STK16. As to conditions: 11-point 3-fold serial dilution, duplicate; read-out: Kd for the inhibition of nucleotide binding, STK16. How it is done:
as §1, §2

The mark [11] stands for this setting: read-out: IC50, CXCL1 mRNA expression, WT; HEK293 WT; 1 h pre-treatment, then 10 ng/mL TNFα 2 h; QPCR.
[12] abbreviates: read-out: IC50, CXCL8 mRNA expression, WT; HEK293 WT; 1 h pre-treatment, then 10 ng/mL TNFα 2 h; QPCR.
Setting [13] is: read-out: IC50, MYC mRNA expression, WT; HEK293 WT; 1 h pre-treatment, then 10 ng/mL TNFα 2 h; QPCR.
[14] abbreviates: IC50, CXCL1 mRNA expression, 8KO.
The mark [15] stands for this setting: IC50, CXCL8 mRNA expression, 8KO.

Chain of CDK8 (P49336 whole entry): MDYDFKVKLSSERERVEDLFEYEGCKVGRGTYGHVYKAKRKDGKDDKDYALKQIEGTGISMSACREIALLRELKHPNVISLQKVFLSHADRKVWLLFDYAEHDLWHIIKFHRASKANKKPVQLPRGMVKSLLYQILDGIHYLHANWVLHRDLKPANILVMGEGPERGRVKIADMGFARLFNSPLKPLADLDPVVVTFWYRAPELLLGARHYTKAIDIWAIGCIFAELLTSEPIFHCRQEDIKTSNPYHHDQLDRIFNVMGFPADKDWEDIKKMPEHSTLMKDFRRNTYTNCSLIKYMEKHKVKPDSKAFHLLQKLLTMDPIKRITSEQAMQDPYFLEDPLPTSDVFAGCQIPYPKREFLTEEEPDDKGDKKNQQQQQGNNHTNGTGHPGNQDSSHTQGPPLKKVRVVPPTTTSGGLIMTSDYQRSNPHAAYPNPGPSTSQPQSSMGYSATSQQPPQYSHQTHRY
Chain of CDK8 (P24863 whole entry partner): as the sequence (P24863 whole entry partner) above
T4 sequence (O75716 whole entry): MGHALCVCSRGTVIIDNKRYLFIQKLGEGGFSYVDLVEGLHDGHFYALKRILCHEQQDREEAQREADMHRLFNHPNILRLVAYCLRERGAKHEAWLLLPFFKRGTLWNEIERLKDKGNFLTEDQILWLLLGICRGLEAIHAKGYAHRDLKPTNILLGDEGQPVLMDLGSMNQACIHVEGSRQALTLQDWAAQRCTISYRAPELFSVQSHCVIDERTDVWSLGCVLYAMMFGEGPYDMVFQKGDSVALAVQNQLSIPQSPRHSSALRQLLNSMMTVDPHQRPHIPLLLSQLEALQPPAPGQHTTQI

Consider `COc1cc([C@@H]2c3cc4c(cc3[C@@H](O[C@@H]3O[C@@H]5CO[C@@H](C)O[C@H]5[C@H](O)[C@H]3O)[C@H]3COC(=O)[C@H]23)OCO4)cc(OC)c1O` [etoposide], for which the “CDK8/19-independent STAT1 S727 phosphorylation in dKO 293 cells, effect of cytotoxic drugs” value in data set [1] is on record as “increased”.

One may read the IC50 as the point on the concentration scale where inhibition reaches its midpoint. In the case of `CN(C)C(=O)Cc1ccc(N2CCCN(c3ccnc4sc(C(N)=O)c(N)c34)CC2)cc1` [15w], the IC50 at CDK8 (read-out: IC50, CXCL1 mRNA expression, 19KO) amounted to 5.2 nM; at CDK8 (read-out: IC50, CXCL8 mRNA expression, 19KO), 4.2 nM; on CDK8 (read-out: IC50, MYC mRNA expression, 19KO) it was 2.5 nM; in the data set with CDK8/19 [2] (HEK293 WT; 1 h pre-treatment, then 10 ng/mL TNFα 2 h; QPCR; read-out: IC50, CXCL1 mRNA expression, WT) it was 6.1 nM; in the data set with CDK8/19 [2] (HEK293 WT; 1 h pre-treatment, then 10 ng/mL TNFα 2 h; QPCR; read-out: IC50, CXCL8 mRNA expression, WT) it was 5.5 nM; in the data set with CDK8/19 [2] (HEK293 WT; 1 h pre-treatment, then 10 ng/mL TNFα 2 h; QPCR; read-out: IC50, MYC mRNA expression, WT), 4 nM. The IC50 turned out to be 5.4 nM at CDK19 [3] (read-out: IC50, CXCL1 mRNA expression, 8KO); 5.4 nM on CDK19 [3] (read-out: IC50, CXCL8 mRNA expression, 8KO); 6.2 nM at CDK19 [3] (read-out: IC50, MYC mRNA expression, 8KO).

With `CN(C)C1CC23CCC4(O2)C(=CCC2(C)C(c5ccc6ccncc6c5)=CCC24)C=C3C(O)C1O` (stereo not drawn) [dCA, 16-didehydro-cortistatin A], the “Stability of CDK8/19 inhibition after wash-off (MYC, JUN, ADAMTS1 mRNA)” value in the data set on CDK8/19 [4] is recorded as “by far the most stable”. The IC50 at CDK8 (IC50, CXCL1 mRNA expression, 19KO) was 1.4 nM; at CDK8 (IC50, CXCL8 mRNA expression, 19KO), 1 nM; at CDK8 (IC50, MYC mRNA expression, 19KO) it was 0.5 nM; in the data set on CDK8/19 [2] (setting [11]) it was 1.3 nM; in the data set with CDK8/19 [2] (setting [12]), 1.4 nM; in the data set on CDK8/19 [2] (setting [13]), 1.5 nM. Further, the half-inhibitory concentration (IC50) on CDK19 [3] (setting [14]) was 1.1 nM; on CDK19 [3] (setting [15]) it was 0.8 nM; at CDK19 [3] (IC50, MYC mRNA expression, 8KO), 0.6 nM. For the same compound, in [5], the “Toxicity in zebrafish assays at higher concentrations” value was “moderate but significant toxicity”.

For the compound “EGF: Recombinant human epidermal growth factor (NSDSECPLSHDGYCLHDGVCMYIEALDKYACNCVVGYIGERCQYRDLKWWELR; UniProt P01133 971-1023, looked up)”, in data set [1], the “Basal STAT1 S727 phosphorylation in dKO cells, effect of cytokines” value is “increased”.

Consider TNFα, for which the “Basal STAT1 S727 phosphorylation in dKO cells, effect of cytokines” value in data set [1] is “increased”.

As a reminder, the Kd is the equilibrium constant for the complex coming apart. In the case of `Cn1ncc2cc(-c3cnc(N)c(Cl)c3N3CCC4(CCNC4=O)CC3)ccc21` [Cmpd3], the Toxicity in rats entry in the data set with rats is “multiple and striking toxicities, including lethality”. Moreover, the Toxicity in dogs result with dogs is “multiple and striking toxicities, including lethality”. In addition, the “Formation of large vesicular structures inside cells” value on PIKFYVE [6] was “caused the formation of large vesicular structures”. Also, the Kd amounted to 59 nM at CDK19 [7], 390 nM at JNK1 (MAPK8), 100 nM on PIKFYVE [10] and 420 nM on STK16. Further, in data set [8], the “Total plasma concentration after 1 h” value is 14.1 µM. Besides, in [8], the “Total plasma concentration after 2 h” value was 6.9 µM. In addition, the “Total plasma concentration after 6 h” value in data set [8] was 0.8 µM. The 50% inhibitory concentration (IC50) turned out to be 3.2 nM with CDK8/19 [2] (setting [11]); 3.3 nM in the data set on CDK8/19 [2] (setting [12]); 4.1 nM with CDK8/19 [2] (setting [13]); 3.1 nM at CDK19 [3] (setting [14]); 6.1 nM at CDK19 [3] (setting [15]); 0.9 nM on CDK19 [3] (IC50, MYC mRNA expression, 8KO). In addition, the “Weight loss in mice” value in data set [9] is recorded as “detectable weight loss”. The “Toxicity in zebrafish assays at higher concentrations” value in [5] is listed as “moderate but significant toxicity”.

For `CC(=O)O[C@H]1C(=O)[C@@]2(C)[C@H]([C@H](OC(=O)c3ccccc3)[C@]3(O)C[C@H](OC(=O)[C@H](O)[C@@H](NC(=O)c4ccccc4)c4ccccc4)C(C)=C1C3(C)C)[C@]1(OC(C)=O)CO[C@@H]1C[C@@H]2O` [Taxol], the “CDK8/19-independent STAT1 S727 phosphorylation in dKO 293 cells, effect of cytotoxic drugs” value in data set [1] is “increased”.
